Measurements reported in US20140314747A1, “PREDICTING RESPONSE TO EGFR INHIBITORS” (Genentech, Inc., priority 2013, published 2014).

Legend:
Format in all cases: cell-based, mouse
[1] = test system: mesenchyme free lung explants (lung epithelium in Matrigel); assay: mesenchyme-free lung explant culture, growth and branching
Protocol: (§1) Pancreas and individual lobes of the lungs were dissected from embryos harvested from timed pregnancy setups. Embryonic explants were cultured on 12 mm Transwell® with 0.4 μm polyester membrane insert (Corning, Tewsbury, Mass.) at the air-liquid interface in DME media with 10% fetal calf serum, glutamine and penicillin-streptomycin. For longer-term cultures (>3 days), media was changed daily.
For mesenchyme-free cultures, lungs were dissected and incubated in Collagenase/Dispase (1 mg/ml for each) for 10-15 minutes at room temperature. Epithelial tissue was removed by mechanical dissection, transferred to the Transwell® plates, and covered with 5-10 μl of 1:1 Matrigel:DME. After Matrigel was solidified, 400 μl media (DME/10% FCS/glutamine/pen-strep+200 ng/ml FGF7 (Life Technologies, Carlsbad, Calif.), FGF1 (Life Technologies), or EGF (Life Technologies)) was added to top and bottom wells. Erlotinib (Tarceva®, 1 μM hydrochloride salt; OSI Pharmaceuticals) or DMSO was added as indicated.
(§2) Embryonic explants were fixed in 4% paraformaldehyde, permeabilized in PBS with 2% BSA, 0.1% saponin or 0.1% Triton-X100. After washing, tissues were stained with anti-E-cadherin (Santa Cruz). Explants were mounted and imaged with a Leica SP5 laser confocal microscope. Images shown are representative of multiple independent experiments (n≧5) with littermate explants that were cultured, stained and imaged under substantially the same conditions and settings.
(§3) Homozygous germline mutations in LKB1 in mice are early embryonic lethal. […] This allele (Lkb1^MG) was “knocked-in” to the endogenous LKB1 locus to generate a genetically engineered mouse line that has been described in detail elsewhere (Lo et al., 2012, J. Cell. Biol., 199: 1117-1130). Lung and pancreas tissues from Lkb1^MG/MG embryos and wild-type littermates were dissected and grown in vitro for several days. Lung cultures were grown both as whole mount explants, and “mesenchyme-free” where most of the mesenchyme and other tissue types were stripped from the lung epithelium and the epithelium was cultured in Matrigel (Lu et al., 2005, J. Biol. Chem., 280: 4834-4841). During this time, the response of these tissues to growth factors was assessed.

[2] = test system: whole mount lung explants; assay: whole mount lung explant culture, growth; conditions: for size of terminal buds: addition of EGF
Protocol: as §1, §2, §3

pancreatic explants = assay: pancreatic explant culture, cyst formation
Protocol: as §1, §2, §3

EGF: epidermal growth factor (Life Technologies) added to explant media (NSDSECPLSHDGYCLHDGVCMYIEALDKYACNCVVGYIGERCQYRDLKWWELR; UniProt P01133 971-1023, looked up)
growth ([1]; Lkb1 MG/MG explants, EGF 100 ng/ml in the presence of NMPP1): substantial growth | growth compared to no growth factor ([1]; Lkb1 wt/wt explants, EGF 100 ng/ml in the presence of NMPP1): modest increase in growth | size of terminal buds ([2]; LKB1 wt/wt lungs): only a modest increase in size | size of terminal buds ([2]; Lkb1 MG/MG lungs): substantial enlargement of the terminal buds | development of the cystic phenotype (pancreatic explants; EGF 100 ng/ml, with Lkb1 inhibition): accelerates the development of the cystic phenotype | cyst formation (pancreatic explants; EGF, in the absence of Lkb1 inhibition): does not by itself promote cysts

C#Cc1cccc(Nc2ncnc3cc(OCCOC)c(OCCOC)cc23)c1 [erlotinib]
effect on EGF-induced growth ([1]; mesenchyme free cultures, erlotinib 1 μM, EGF + NMPP1): inhibited | effect on EGF-induced growth ([2]; whole mount cultures, erlotinib 1 μM, EGF + NMPP1): inhibited | effect on development of the cystic phenotype (pancreatic explants; erlotinib 1 μM, Lkb1 inhibition (NMPP1) with EGF): inhibits the development of the cystic phenotype

FGF-1: fibroblast growth factor (FGF)-1 (Life Technologies)
growth of mesenchyme free lung cultures ([1]; both LKB1 wt/wt and LKB1 MG/MG, presence and absence of NMPP1): robust growth
